Data as given in patent publication US10376584B2, “Stable pharmaceutical formulations of methylnaltrexone” (Progenics Pharmaceuticals, Inc., priority 2003, dated 2019).

Assay: Autoclaving of methylnaltrexone solutions (122° C., 15 lbs. pressure for 20 min), degradation products
Type: physicochemical
Protocol: Applicants have discovered that during the autoclaving process, methylnaltrexone in aqueous solution tends to degrade to a surprising extent. The amount of degradation resulting from simple autoclaving (122° C., 15 lbs. pressure for 20 min.) can be as high as […]. The degradation products are depicted in FIG. 1, and appear to include at least two predominant degradants having relative retention times (RRT) of 0.72 (2.828 minutes) and 0.89 (3.435 minutes) and, with other minor forms as can be observed. The degradant identified by the 0.72 RRT peak appears in small amounts, 0.074, immediately upon dissolving the methylnaltrexone into solution and increases overtime with storage or autoclaving 0.25%. The degradant identified by the 0.89 RRT peak appears only after storage over time or after autoclaving (<0.05% and 0.724%, respectively). Applicants also have discovered that methylnaltrexone is unstable in aqueous solutions when stored at room temperature or even at 4° C. for significant (but commercially necessary) periods of time such as 6 months, 12 months or even two years. Degradation occurs without regard to whether the aqueous solution was previously autoclaved or filter sterilized. It would be desirable to stabilize formulations of methylnaltrexone such that following the autoclaving process or following storage (or both autoclaving and storage), the amount of the total degradation products would be less than 2.0%, 1.5%, 1.0%, 0.5%, 0.25%, and even 0.125%.
The invention provides stable formulations of methylnaltrexone. By stable solutions of methylnaltrexone, it is meant that following autoclaving at 122° C., 15 lbs. pressure for 20 minutes, the methylnaltrexone degradation products resulting from such conditions are not more than 2% of the total methylnaltrexone present in a given solution. […]

## C[N@+]1(CC2CC2)CC[C@]23c4c5ccc(O)c4O[C@H]2C(=O)CC[C@@]3(O)[C@H]1C5 [methylnaltrexone]
Buffers in concentrations ranging from 0.25 mM to 25 mM
  levels of degradation products after autoclaving with buffering agents: Acceptable levels of degradation products
pH between 4.25 and 6
  stability to autoclaving by adjustment of pH alone: not sufficient to produce stable formulations
pH set between 3.0 and 6.0 with pH-adjusting acid or base prior to autoclaving, no buffer
  pH of the autoclaved sample: about 7.0
